Measured values reported in US20260167623A1 (NIKANG THERAPEUTICS, INC., priority 2022, published 2026).

Experiments:
[1] = target: T1, CDK2 (Homo sapiens, UniProt P24941); assay: High-throughput HTRF measurement of cellular endogenous CDK2 level (degradation, DC50/Dmax) in OVCAR3 cells, 6 h; assay type: cell-based; conditions: 6 h compound treatment, HTRF total CDK2, read-out: DC50_OVCAR3_6h
T1 construct: High-Throughput Measurement of Cellular Endogenous CDK2; endogenous in cells; host or cells: OVCAR3
How it was run: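 OVCAR3 cells were treated overnight after seeding with compounds at 0.03–1,000 nM for 6 h, then lysed. Total CDK2 was quantified by HTRF (d2- and Eu-cryptate anti-CDK2 antibodies, […] ratio) after overnight incubation at room temperature. Data normalized to DMSO (0%) and lysis buffer (100% degradation); DC50 from four-parameter logistic fit.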

[2] = target: T1, CDK2; assay: Inhibition of CDK2: phospho-Rb (S807/811) HTRF measurement in OVCAR3 cells, 24 h; assay type: cell-based; conditions: 24 h compound treatment, read-out: pRB_OVCAR3_24h
How it was run: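 OVCAR3 cells, seeded overnight, were exposed to compounds at 0.3 to 10,000 nM for 24 h, then lysed. Rb S807/811 phosphorylation read by HTRF (665/620 nm ratio) after 4 h detection at room temperature; data normalized to DMSO and IC50 from four-parameter logistic fit.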

| SMILES | DC50 [1] | IC50 [2] |
| --- | --- | --- |
| O=C1CCN(c2noc3cc(C4CCN(CC5CCN(c6cccc(S(=O)(=O)N7CCC(Nc8ncc(C(F)(F)F)cn8)CC7)c6)CC5)CC4)ccc23)C(=O)N1 [Example 222, 1-(6-(1-((1-(3-((4-((5-(trifluoromethyl)pyrimidin-2-yl)amino)piperidin-1-yl)sulfonyl)phenyl)piperidin-4-yl)methyl)piperidin-4-yl)benzo[d]isoxazol-3-yl)dihydropyrimidine-2,4(1H,3H)-dione] | 1 to 10 nM | 1 to 100 nM |
| Cn1nc(N2CCC(=O)NC2=O)c2ccc(C3CCN(CC4CCN(c5cccc(S(=O)(=O)N6CCC(Nc7ncc(C(F)(F)F)cn7)CC6)c5)CC4)CC3)c(F)c21 [Example 94, 1-(7-fluoro-1-methyl-6-(1-((1-(3-((4-((5-(trifluoromethyl)pyrimidin-2-yl)amino)-piperidin-1-yl)sulfonyl)phenyl)piperidin-4-yl)methyl)piperidin-4-yl)-1H-indazol-3-yl)dihydropyrimidine-2,4(1H,3H)-dione] | 10 to 100 nM | 1 to 100 nM |
| CCc1cnc(NC2CCN(S(=O)(=O)c3cccc(CN4CCC(c5ccc6c(N7CCC(=O)NC7=O)nn(C)c6c5)CC4)c3)CC2)nc1 [Example 61, 1-(6-(1-(3-((4-((5-ethylpyrimidin-2-yl)amino)piperidin-1-yl)sulfonyl)benzyl)-piperidin-4-yl)-1-methyl-1H-indazol-3-yl)dihydropyrimidine-2,4(1H,3H)-dione] | 10 to 100 nM | 1 to 100 nM |
| Cn1c(=O)n(C2CCC(=O)NC2=O)c2cccc(N3CCN(CC4CCN(c5cc(S(=O)(=O)N6CCC(Nc7ncc(Cl)cn7)CC6)ccc5C#N)CC4)CC3)c21 (stereo not drawn) [Example 203, 4-((4-((5-chloropyrimidin-2-yl)amino)piperidin-1-yl)sulfonyl)-2-(4-((4-(1-(2,6-dioxopiperidin-3-yl)-3-methyl-2-oxo-2,3-dihydro-1H-benzo[d]imidazol-4-yl)piperazin-1-yl)methyl)piperidin-1-yl)benzonitrile] | 1 to 10 nM | 1 to 100 nM |
| Cn1nc(N2CCC(=O)NC2=O)c2cc(F)c(C3CCN(CC4CCN(c5cccc(S(=O)(=O)N6CCC(Nc7ncc(C(F)(F)F)cn7)CC6)c5)CC4)CC3)cc21 [Example 100, 1-(5-fluoro-1-methyl-6-(1-((1-(3-((4-((5-(trifluoromethyl)pyrimidin-2-yl)amino)-piperidin-1-yl)sulfonyl)phenyl)piperidin-4-yl)methyl)piperidin-4-yl)-1H-indazol-3-yl)dihydropyrimidine-2,4(1H,3H)-dione] | 10 to 100 nM | 1 to 100 nM |
| Cn1nc(N2CCC(=O)NC2=O)c2ccc(C3CCN(CC4CCN(c5cccc(S(=O)(=O)N6CC[C@H](Nc7ncc(Cl)cn7)[C@H](F)C6)c5)CC4)CC3)cc21 (racemic) [Example 202, Rac-1-(6-(1-((1-(3-(((3R,4S)-4-((5-chloropyrimidin-2-yl)amino)-3-fluoropiperidin-1-yl)sulfonyl)phenyl)piperidin-4-yl)methyl)piperidin-4-yl)-1-methyl-1H-indazol-3-yl)dihydropyrimidine-2,4(1H,3H)-dione] | 1 to 10 nM | 1 to 100 nM |
| O=C1CCC(N2Cc3cc(N4CCC(CN5CCN(c6cccc(S(=O)(=O)N7CCC(Nc8ncc(C(F)(F)F)cn8)CC7)c6)CC5)CC4)ccc3C2=O)C(=O)N1 (stereo not drawn) [Example 248, 3-(1-oxo-5-(4-((4-(3-((4-((5-(trifluoromethyl)pyrimidin-2-yl)amino)piperidin-1-yl)sulfonyl)phenyl)piperazin-1-yl)methyl)piperidin-1-yl)isoindolin-2-yl)piperidine-2,6-dione] | 1000 to 5000 nM | 1 to 100 nM |
| Cn1nc(N2CCC(=O)NC2=O)c2ccc(C3CCN(CC4(O)CCN(c5cccc(S(=O)(=O)N6CCC(Nc7ncc(Cl)cn7)CC6)c5)CC4)CC3)cc21 [Example 162, 1-(6-(1-((1-(3-((4-((5-chloropyrimidin-2-yl)amino)piperidin-1-yl)sulfonyl)phenyl)-4-hydroxypiperidin-4-yl)methyl)piperidin-4-yl)-1-methyl-1H-indazol-3-yl)dihydropyrimidine-2,4(1H,3H)-dione] | 1 to 10 nM | 1 to 100 nM |
| Cn1c(S(=O)(=O)N2CCC(Nc3ncc(C(F)(F)F)cn3)CC2)cnc1CN1CCC(c2ccc3c(N4CCC(=O)NC4=O)nn(C)c3c2)CC1 [Example 47, 1-(1-methyl-6-(1-((1-methyl-5-((4-((5-(trifluoromethyl)pyrimidin-2-yl)amino)-piperidin-1-yl)sulfonyl)-1H-imidazol-2-yl)methyl)piperidin-4-yl)-1H-indazol-3-yl)dihydropyrimidine-2,4(1H,3H)-dione] | 10 to 100 nM | 1 to 100 nM |
| Cn1nc(N2CCC(=O)NC2=O)c2ccc(C3CCN(CC4CCN(c5cc(F)cc(S(=O)(=O)N6CCC(Nc7ncc(Cl)cn7)CC6)c5)CC4)CC3)cc21 [Example 147, 1-(6-(1-((1-(3-((4-((5-chloropyrimidin-2-yl)amino)piperidin-1-yl)sulfonyl)-5-fluorophenyl)piperidin-4-yl)methyl)piperidin-4-yl)-1-methyl-1H-indazol-3-yl)dihydropyrimidine-2,4(1H,3H)-dione] | 1 to 10 nM | 1 to 100 nM |
| Cn1c(=O)n(C2CCC(=O)NC2=O)c2cccc(N3CCN(CC4CCN(c5cc(S(=O)(=O)N6CCC(Nc7ncc(C(F)(F)F)cn7)CC6)ccc5C#N)CC4)CC3)c21 (stereo not drawn) [Example 217, 2-(4-((4-(1-(2,6-dioxopiperidin-3-yl)-3-methyl-2-oxo-2,3-dihydro-1H-benzo[d]imidazol-4-yl)piperazin-1-yl)methyl)piperidin-1-yl)-4-((4-((5-(trifluoromethyl)pyrimidin-2-yl)amino)piperidin-1-yl)sulfonyl)benzonitrile] | 10 to 100 nM | 1 to 100 nM |

Next, values leading:

| DC50 [1] | IC50 [2] | SMILES |
| --- | --- | --- |
| 10 to 100 nM | 1 to 100 nM | O=C1CCC(c2csc3cc(C4CCN(CC5CCN(c6cccc(S(=O)(=O)N7CCC(Nc8ncc(C(F)(F)F)cn8)CC7)c6)CC5)CC4)ccc23)C(=O)N1 (stereo not drawn) [Example 250, 3-(6-(1-((1-(3-((4-((5-(trifluoromethyl)pyrimidin-2-yl)amino)piperidin-1-yl)sulfonyl)phenyl)piperidin-4-yl)methyl)piperidin-4-yl)benzo[b]thiophen-3-yl)piperidine-2,6-dione] |
| 10 to 100 nM | 100 to 500 nM | Cn1c(=O)n(C2CCC(=O)NC2=O)c2cccc(C3CCN(CC4CCN(c5cc(F)cc(S(=O)(=O)N6CCC(Nc7ncc(Cl)cn7)CC6)c5)CC4)CC3)c21 (stereo not drawn) [Example 180, 3-(4-(1-((1-(3-((4-((5-chloropyrimidin-2-yl)amino)piperidin-1-yl)sulfonyl)-5-fluorophenyl)piperidin-4-yl)methyl)piperidin-4-yl)-3-methyl-2-oxo-2,3-dihydro-1H-benzo[d]imidazol-1-yl)piperidine-2,6-dione] |
| 1 to 10 nM | 1 to 100 nM | O=C1CCN(c2noc3cc(C4CCN(CC5CCN(c6cccc(S(=O)(=O)N7CCC(Nc8ncc(Cl)cn8)CC7)c6)CC5)CC4)ccc23)C(=O)N1 [Example 221, 1-(6-(1-((1-(3-((4-((5-chloropyrimidin-2-yl)amino)piperidin-1-yl)sulfonyl)phenyl)piperidin-4-yl)methyl)piperidin-4-yl)benzo[d]isoxazol-3-yl)dihydropyrimidine-2,4(1H,3H)-dione] |
| 10 to 100 nM | 1 to 100 nM | Cn1c(=O)n(C2CCC(=O)NC2=O)c2ccc(F)c(C3CCN(CC4CCN(c5cc(S(=O)(=O)N6CCC(Nc7ncc(Cl)cn7)CC6)ccc5C#N)CC4)CC3)c21 (stereo not drawn) [Example 216, 4-((4-((5-chloropyrimidin-2-yl)amino)piperidin-1-yl)sulfonyl)-2-(4-((4-(1-(2,6-dioxopiperidin-3-yl)-5-fluoro-3-methyl-2-oxo-2,3-dihydro-1H-benzo[d]imidazol-4-yl)piperidin-1-yl)methyl)piperidin-1-yl)benzonitrile] |
| 10 to 100 nM | 1 to 100 nM | O=C1CCC(n2c(=O)oc3c(C4CCN(CC5CCN(c6cccc(S(=O)(=O)N7CCC(Nc8ncc(Cl)cn8)CC7)c6)CC5)CC4)cccc32)C(=O)N1 (stereo not drawn) [Example 168, 3-(7-(1-((1-(3-((4-((5-chloropyrimidin-2-yl)amino)piperidin-1-yl)sulfonyl)phenyl)piperidin-4-yl)methyl)piperidin-4-yl)-2-oxobenzo[d]oxazol-3(2H)-yl)piperidine-2,6-dione] |
| 10 to 100 nM | 1 to 100 nM | Cn1c(=O)n(C2CCC(=O)NC2=O)c2cccc(C3CCN(CC4CCN(c5cc(S(=O)(=O)N6CCC(Nc7ncc(Cl)cn7)CC6)ccc5C#N)CC4)CC3)c21 (stereo not drawn) [Example 151, 4-((4-((5-chloropyrimidin-2-yl)amino)piperidin-1-yl)sulfonyl)-2-(4-((4-(1-(2,6-dioxopiperidin-3-yl)-3-methyl-2-oxo-2,3-dihydro-1H-benzo[d]imidazol-4-yl)piperidin-1-yl)methyl)piperidin-1-yl)benzonitrile] |
| 10 to 100 nM | 1 to 100 nM | O=C1CCC(N2Cc3cc(N4CCC(CN5CCN(c6cccc(S(=O)(=O)N7CCC(Nc8ncc(Cl)cn8)CC7)c6)CC5)CC4)ccc3C2=O)C(=O)N1 (stereo not drawn) [Example 247, 3-(5-(4-((4-(3-((4-((5-chloropyrimidin-2-yl)amino)piperidin-1-yl)sulfonyl)phenyl)piperazin-1-yl)methyl)piperidin-1-yl)-1-oxoisoindolin-2-yl)piperidine-2,6-dione] |
